Assays:
[1] = at 20° C.; cited from earlier work
[2] = Excerpt: As used herein, the term “solubility” in regard to water solubility includes cases where the sample completely dissolves in deionized water to form a homogeneous mixture, and cases where the sample is completely emulsified. As used herein, “completely” means that no mass of the sample remains in the deionized water.
[3] = Surface tension of blood containing blood modifying agent, pendant drop method (Example 6); settings: sheep defibrinated blood; amount 0.10 mass %; 35 ° C.; without agent 62.1
Method: The surface tension of blood containing a blood modifying agent was measured by the pendant drop method, using a Drop Master500 contact angle meter by Kyowa Interface Science Co., Ltd. The surface tension was measured after adding a prescribed amount of blood modifying agent to sheep defibrinated blood, and thoroughly shaking. The measurement was accomplished automatically with a device, and the […] γ was determined by the following formula (see FIG. 4). γ=g×ρ×(de)^2×1/H The density ρ was measured at the temperatures listed in Table 5, according to JIS K 2249-1995, “Density test methods and density/mass/volume conversion tables”, “5. Vibrating density test method”. The measurement was accomplished using a DA-505 by Kyoto Electronics Co., Ltd.

Row | Water solubility [2] [g] | Compound | other results
1 | – | CCCCC(=O)CCCC [5-nonanone] | vapor pressure [1]: about 230 Pa
2 | – | CC(C)CCCCCCCCCCCCCCCOC(=O)CC(O)C(=O)OCCCCCCCCCCCCCCCC(C)C (stereo not shown) [Diisostearyl malate, Diisostearyl Malate] | Water solubility (g) [2]: 20< g
3 | – | CCCCCCCCCCCCOC(=O)CCCCCCCCCCC [ELECTOL WE20, Ester of dodecanoic acid (C12) and dodecyl alcohol (C12)] | Surface tension (mN/m) [3]: 58.8 mN/m
4 | <0.05 | CCCCC(CC)C(=O)OCC(C)(C)COC(=O)C(CC)CCCC (stereo not shown) [H-208BRS, Neopentylglycol di-2-ethylhexanoate] | –
5 | <0.05 | CCCCC(CC)C(=O)OCC(COC(=O)C(CC)CCCC)OC(=O)C(CC)CCCC (stereo not shown) [PANACET 800B] | –
6 | <0.05 | CCCCCCCC(=O)OCC(COC(=O)CCCCCCC)OC(=O)CCCCCCC [PANACET 800] | –
7 | <0.05 | CCCCOC(=O)CC(CC(=O)OCCCC)(OC(C)=O)C(=O)OCCCC [Tributyl O-acetylcitrate, Tributyl O-Acetylcitrate] | –

From patent US10543132B2, “Absorbent article with blood modifying agent” (UNICHARM CORPORATION, priority 2011, dated 2020)
